This is an account of results in patent US10195189B2, “2-phenethenyltetrahydro isoquinolines useful as anti-HIV compounds” (priority 2014, dated 2019).

Broadly, the EC50 is the concentration needed to bring the measured effect to its halfway point.

The test system of the assay is HIV-1 NL4-3 viral clone expressing Renilla luciferase. As to the kind of experiment: microbe, parasite or virus in culture. Particulars: Human immunodeficiency virus 1, NL43, MT2, 96 h. It counts as cell-based. How it is done: Protocol for MT-2 Spread Assay
The present assay was used to screen candidate antiviral compounds by quantification of virus spread and production over several rounds of infection in vitro. MT-2, a HIV-1 permissive human T-cell line, was seeded in microtiter plates and was simultaneously treated with serially diluted compound and inoculated with a HIV-1 NL4-3 viral clone engineered to express Renilla luciferase in place of Net Following treatment, the culture was incubated for 96 hours. After the incubation, media was collected and used to estimate relative infectivity on the indicator cell line, TZM-bl. Additionally, viral spread was quantified by measuring luciferase activity via a commercially available luciferase substrate. In parallel, MT-2 cells were seeded and inoculated with mock virus in the presence of serially diluted compound. Compound toxicity was quantified 96 hours after treatment with AlamarBlue.
MT-2 (NIH Aids reagent program 237) cells were grown and maintained in an incubator at 37° C. with 5% CO2 using a basal medium of RPMI-1640 supplemented with 10% FBS. Cells were seeded in 100 μl at 2×10^4 cells/well in white walled 96-well microtiter plates. Candidate compounds were 3-fold serially diluted in the appropriate solvent. Solvent without compound was used as a no drug reference. Cells were inoculated at a multiplicity of 0.027 with an HIV-1 NL4-3 virus stock engineered to express Renilla luciferase in place of Net Diluted virus stock was first added to serially diluted compound. Compound and virus were delivered to cells in an equal volume (100 μl) and treated cultures were returned to the incubator for 96 hours. In parallel, plates for cytotoxicity estimates were prepared in the same way except cells were plated in clear walled 96-well microtiter plates and were mock infected.
At 96 hours post infection, 100 μl virus containing culture supernatant was collected from the treated and infected cultures and serially diluted in DMEM supplemented with 10% FBS, 1% sodium pyruvate, and 20 μg/ml DEAE dextran. One day prior, TZM-bl (ATCC PTA-5659) were cultured in basal medium of DMEM supplemented with 10% FBS and 1% sodium pyruvate and seeded at 7.5×10^3 cells/well in black walled 96-well microtiter plates. Diluted virus containing culture supernatant was transferred to TZM-bl cultures and incubated for 48 hours at 37° C. with 5% CO2. Infected TZM-bl cultures were fixed for 5 minutes with a 1% formaldehyde/0.2% gluteraldehyde/PBS solution then washed three times with PBS. Fixed cultures were incubated at 37° C. for 25 minutes with a 200 μg/ml MUG (4-Methylumbelliferyl β-D-[…])/DMEM solution. The reaction was stopped with an equal volume of 1M sodium carbonate and read at 360, 449 nm on fluorescence plate reader (Biotek).
At 96 hours post infection, 100 μl of culture supernatant was removed from the treated and infected cultures and EnduRen live cell substrate (Promega) was added at a final concentration 1.3 μg/ml. Cells were incubated for 1.5 hours at 37° C. with 5% CO2 then read on a luminescence plate reader (Biotek).
For all assays, data was imported into Accelrys Assay Explorer 3.3. In Assay Explorer, % inhibition (antiviral or cytotoxicity) was calculated using the solvent control as a reference by the following equation: 1−(SignalCompound/SignalReference). The % Inhibition and compound concentration data was fitted using the following 4-parameter logistic model (Assay Explorer model 42):
[formula] where X is compound concentration, Y is % inhibition, D is the maximum % Inhibition (constrained to 100%), C is IC50 value or inflection point, B is the hill slope, and A is the minimum % inhibition (constrained to 0%). The IC50 value is reported as the EC50 or CC50 depending on the assay endpoint. EC50 represents the effective concentration at which virus replication is inhibited by 50 percent. CC50 represents the concentration that results in the death of 50 percent of the host cells. […]

Regarding `COc1cc2c(cc1OCc1ccccc1)CCNC2/C=C/c1sccc1C` (stereo not drawn) [BS, 6-Benzyloxy-7-methoxy-1-[(E)-2-(3-methyl-2-thienyl)vinyl]-1,2,3,4-tetrahydroisoquinoline], the EC50 was 2870 nM.
Then `COc1cc(F)c(/C=C/C2NCCc3cc(OCc4ccccc4)c(OC)cc32)c(F)c1` (stereo not drawn) [BU, 6-Benzyloxy-1-[(E)-2-(2,6-difluoro-4-methoxy-phenyl)vinyl]-7-methoxy-1,2,3,4-tetrahydroisoquinoline], with 1020 nM; and `COc1cc(C)c(/C=C/C2NCCc3cc(OCc4ccccc4)c(OC)cc32)cc1C` (stereo not drawn) [BV, 6-Benzyloxy-7-methoxy-1-[(E)-2-(4-methoxy-2,5-dimethyl-phenyl)vinyl]-1,2,3,4-tetrahydroisoquinoline], with 304 nM.
For `COc1cc2c(cc1OCc1ccccc1)CCNC2/C=C/c1cc(C(C)C)c(OC)cc1C` (stereo not drawn) [BW, 6-Benzyloxy-1-[(E)-2-(5-isopropyl-4-methoxy-2-methyl-phenyl)vinyl]-7-methoxy-1,2,3,4-tetrahydroisoquinoline], a half-maximal effect (EC50) was put at 840 nM. This EC50 lies about 2.8-fold higher than the previous one.
Then `COc1cc2c(cc1OCc1ccccc1)CCNC2/C=C/c1cc(OCC(C)(C)C)c(OC)cc1C` (stereo not drawn) [BX, 6-Benzyloxy-1-[(E)-2-[5-(2,2-dimethylpropoxy)-4-methoxy-2-methyl-phenyl]vinyl]-7-methoxy-1,2,3,4-tetrahydroisoquinoline], with 350 nM; and `COc1cc2c(cc1OCc1ccccc1)CCNC2/C=C/c1cc(OCC2CCNCC2)c(OC)cc1C` (stereo not drawn) [BY, 6-Benzyloxy-7-methoxy-1-[(E)-2-[4-methoxy-2-methyl-5-(4-piperidylmethoxy)phenyl]vinyl]-1,2,3,4-tetrahydroisoquinoline], with 397 nM; and `COc1cc2c(cc1OCc1ccccc1)CCNC2/C=C/c1ccc(S(C)(=O)=O)cc1` (stereo not drawn) [BZ, 6-Benzyloxy-7-methoxy-1-[(E)-2-(4-methylsulfonylphenyl)vinyl]-1,2,3,4-tetrahydroisoquinoline], with 1000 nM.
For the molecule `COc1ccc(/C=C/C2NCCc3cc(OCc4ccccc4)c(OC)cc32)c(OC)n1` (stereo not drawn) [CA, 6-Benzyloxy-1-[(E)-2-(2,6-dimethoxy-3-pyridyl)vinyl]-7-methoxy-1,2,3,4-tetrahydroisoquinoline], the response was half-maximal at 640 nM (EC50).
With `COc1cc2c(cc1OCc1ccccc1)CCNC2/C=C/c1ccc2c(c1)CCCO2` (stereo not drawn) [CB, 6-Benzyloxy-1-[(E)-2-chroman-6-ylvinyl]-7-methoxy-1,2,3,4-tetrahydroisoquinoline] the figure was 1550 nM.
Then `COc1cc2c(cc1OCc1ccccc1)CCNC2/C=C/c1c(C)ccc2c1OCCC2` (stereo not drawn) [CC, 6-Benzyloxy-7-methoxy-1-[(E)-2-(7-methylchroman-8-yl)vinyl]-1,2,3,4-tetrahydroisoquinoline], with 1180 nM; and `COc1cc(C)c(/C=C/C2NCCc3cc(OCc4ccccc4)c(OC)cc32)cc1OCCCCN=[N+]=[N-]` (stereo not drawn) [CD, 1-[(E)-2-[5-(4-azidobutoxy)-4-methoxy-2-methyl-phenyl]vinyl]-6-benzyloxy-7-methoxy-1,2,3,4-tetrahydroisoquinoline], with 88 nM; and `COc1cc2c(cc1OCc1ccccc1)CCNC2/C=C/c1cc2c(cc1C)OCCC2` (stereo not drawn) [CE, 6-Benzyloxy-7-methoxy-1-[(E)-2-(7-methylchroman-6-yl)vinyl]-1,2,3,4-tetrahydroisoquinoline], with 125 nM.
With `COc1cc2c(cc1OCc1ccccc1)CCNC2/C=C/c1cccc2c1OCCC2` (stereo not drawn) [CF, 6-Benzyloxy-1-[(E)-2-chroman-8-ylvinyl]-7-methoxy-1,2,3,4-tetrahydroisoquinoline], a half-maximal effect (EC50) was put at 490 nM.
With `COc1cc2c(cc1OCc1ccccc1)CCNC2/C=C/c1cc2c(cc1C)OCC2` (stereo not drawn) [CG, 6-Benzyloxy-7-methoxy-1-[(E)-2-(6-methyl-2,3-dihydrobenzofuran-5-yl)vinyl]-1,2,3,4-tetrahydroisoquinoline] the figure was 140 nM; with `COc1cc2c(cc1OCc1ccccc1)CCNC2/C=C/c1cc2ccccc2n1C(=O)OC(C)(C)C` (stereo not drawn) [CH, tert-Butyl 2-[(E)-2-(6-benzyloxy-7-methoxy-1,2,3,4-tetrahydroisoquinolin-1-yl)vinyl]indole-1-carboxylate], 580 nM; with `COc1cc2c(cc1OCc1ccccc1)CCNC2/C=C/c1cn(C(=O)OC(C)(C)C)c2ccccc12` (stereo not drawn) [CI, tert-Butyl 3-[(E)-2-(6-benzyloxy-7-methoxy-1,2,3,4-tetrahydroisoquinolin-1-yl)vinyl]indole-1-carboxylate], 230 nM.
With `COc1cc2c(cc1OCc1ccccc1)CCNC2/C=C/c1c[nH]c2ccccc12` (stereo not drawn) [CJ, 6-Benzyloxy-1-[(E)-2-(1H-indol-3-yl)vinyl]-7-methoxy-1,2,3,4-tetrahydroisoquinoline] the figure was 470 nM; with `CCOC(=O)CCCOc1cc(/C=C/C2NCCc3cc(OCc4ccccc4)c(OC)cc32)ccc1OC` (stereo not drawn) [CV, Ethyl 4-[5-[(E)-2-(6-benzyloxy-7-methoxy-1,2,3,4-tetrahydroisoquinolin-1-yl)vinyl]-2-methoxy-phenoxy]butanoate], 100 nM.
With `COc1cc2c(cc1OCc1ccccc1)CCNC2/C=C/c1ccccc1NC(=O)OC(C)(C)C` (stereo not drawn) [CW, tert-Butyl N-[2-[(E)-2-(6-benzyloxy-7-methoxy-1,2,3,4-tetrahydroisoquinolin-1-yl)vinyl]phenyl]carbamate] the figure was 5400 nM; with `COc1cc2c(cc1OCc1ccccc1)CCNC2/C=C/c1ccccc1N` (stereo not drawn) [CX, 2-[(E)-2-(6-benzyloxy-7-methoxy-1,2,3,4-tetrahydroisoquinolin-1-yl)vinyl]aniline], 1400 nM; with `COc1cc2c(cc1OCc1ccccc1)CCNC2/C=C/c1ccc(OC)c(C(F)(F)F)c1` (stereo not drawn) [CY, (E)-6-(Benzyloxy)-7-methoxy-1-(4-methoxy-3-(trifluoromethyl)styryl)-1,2,3,4-tetrahydroisoquinoline], 697 nM.
Molecule `COc1cc2c(cc1OCc1ccccc1)CCNC2/C=C/c1cc(C)c(OC)c(C(F)(F)F)c1` (stereo not drawn) [CZ, (E)-6-(benzyloxy)-7-methoxy-1-(4-methoxy-3-methyl-5-(trifluoromethyl)styryl)-1,2,3,4-tetrahydroisoquinoline] displayed an EC50 of 2190 nM. This EC50 lies about 3.1-fold higher than the previous one.
As to `COc1cc2c(cc1OCc1ccccc1)CCNC2/C=C/c1ccccc1C(F)(F)F` (stereo not drawn) [DA, (E)-6-(benzyloxy)-7-methoxy-1-(2-(trifluoromethyl)styryl)-1,2,3,4-tetrahydroisoquinoline], the response was half-maximal at 2340 nM (EC50).
With `COc1cc2c(cc1OCc1ccccc1)CCNC2/C=C/c1cccc(C(F)(F)F)c1` (stereo not drawn) [DB, (E)-6-(benzyloxy)-7-methoxy-1-(3-(trifluoromethyl)styryl)-1,2,3,4-tetrahydroisoquinolin] the figure was 2670 nM.
With `COc1cc2c(cc1OCc1ccccc1)CCNC2/C=C/c1ccccc1N(C)C` (stereo not drawn) [DC, (E)-2-(2-(6-(benzyloxy)-methoxy-1,2,3,4-tetrahydroisoquinolin-1-yl)vinyl)-N,N-dimethylamine] the figure was 830 nM; with `COCCOc1ccccc1/C=C/C1NCCc2cc(OCc3ccccc3)c(OC)cc21` (stereo not drawn) [DE, (E)-6-(benzyloxy)-7-methoxy-1-(2-(2-methoxyethoxy)styryl)-1,2,3,4-tetrahydroisoquinoline], 1440 nM.
With `COc1cc2c(cc1OCc1ccccc1)CCNC2/C=C/c1ccc2c(c1)OC(F)(F)O2` (stereo not drawn) [DF, (E)-6-(benzyloxy)-1-(2-(2,2-difluorobenzo[d][1,3]dioxol-5-yl)vinyl)-7-methoxy-1,2,3,4-tetrahydroisoquinoline] the figure was 5440 nM.
